Source: BindingDB's records for patent WO2022081842 (THE BROAD INSTITUTE, INC., 2022)

molecular target: T1, Histone acetyltransferase KAT6A [507-778] (Human, UniProt Q92794); assay: Kat6a Activity Assay
T1 construct: 507-778
Excerpt: Kat6a inhibitory activities of the compounds described in the present invention were quantified using a Fluorescence Resonance Energy Transfer (TR-FRET) assay which measures acetylation of a synthetic, biotinylated Histone-H4-derived peptide by the enzyme.Recombinant human His-tagged Kat6a protein (amino acids 194-810), was purified in-house from Baculovirus- infected insect cells (Sf9). Histone H4 peptide (amino acids 1-24, […]-VLRD-K(Btn)-amide), which was used as substrate, was synthesized by Biosyntan GmbH, Berlin, Germany. Acetyl Coenzyme A was purchased from Sigma-Aldrich (#A-2056).Kat6a was incubated for 60 mins at 22°C in the presence of different concentrations of test substances (0 μM, and within the range 0.01 - 20 μM) in assay buffer [25 mM Tris/HCl pH 8, 1 mM EGTA, 2.5 mM Glutathion, 0.02% Chicken Albumin, 0.05% Pluronic F127, 25 mM NaCl, 220 nM H4 peptide and 600 nM Acetyl Coenzyme A].The reaction was stopped by addition of Detection Solution (25mM HEPES pH 7.5, 0.1% BSA, 22nM SAXL665 (Cisbio #610SAXLE), 100μM Anacardic Acid (Enzo #ALX-270-381), 1nM Anti-Histone H4 (ACETYL K8) Antibody (ABCAM #AB15823) and 0.5 nM Anti-Rabbit IgG Eu (Perkin Elmer #AD0083).

T1 sequence (Q92794 whole entry): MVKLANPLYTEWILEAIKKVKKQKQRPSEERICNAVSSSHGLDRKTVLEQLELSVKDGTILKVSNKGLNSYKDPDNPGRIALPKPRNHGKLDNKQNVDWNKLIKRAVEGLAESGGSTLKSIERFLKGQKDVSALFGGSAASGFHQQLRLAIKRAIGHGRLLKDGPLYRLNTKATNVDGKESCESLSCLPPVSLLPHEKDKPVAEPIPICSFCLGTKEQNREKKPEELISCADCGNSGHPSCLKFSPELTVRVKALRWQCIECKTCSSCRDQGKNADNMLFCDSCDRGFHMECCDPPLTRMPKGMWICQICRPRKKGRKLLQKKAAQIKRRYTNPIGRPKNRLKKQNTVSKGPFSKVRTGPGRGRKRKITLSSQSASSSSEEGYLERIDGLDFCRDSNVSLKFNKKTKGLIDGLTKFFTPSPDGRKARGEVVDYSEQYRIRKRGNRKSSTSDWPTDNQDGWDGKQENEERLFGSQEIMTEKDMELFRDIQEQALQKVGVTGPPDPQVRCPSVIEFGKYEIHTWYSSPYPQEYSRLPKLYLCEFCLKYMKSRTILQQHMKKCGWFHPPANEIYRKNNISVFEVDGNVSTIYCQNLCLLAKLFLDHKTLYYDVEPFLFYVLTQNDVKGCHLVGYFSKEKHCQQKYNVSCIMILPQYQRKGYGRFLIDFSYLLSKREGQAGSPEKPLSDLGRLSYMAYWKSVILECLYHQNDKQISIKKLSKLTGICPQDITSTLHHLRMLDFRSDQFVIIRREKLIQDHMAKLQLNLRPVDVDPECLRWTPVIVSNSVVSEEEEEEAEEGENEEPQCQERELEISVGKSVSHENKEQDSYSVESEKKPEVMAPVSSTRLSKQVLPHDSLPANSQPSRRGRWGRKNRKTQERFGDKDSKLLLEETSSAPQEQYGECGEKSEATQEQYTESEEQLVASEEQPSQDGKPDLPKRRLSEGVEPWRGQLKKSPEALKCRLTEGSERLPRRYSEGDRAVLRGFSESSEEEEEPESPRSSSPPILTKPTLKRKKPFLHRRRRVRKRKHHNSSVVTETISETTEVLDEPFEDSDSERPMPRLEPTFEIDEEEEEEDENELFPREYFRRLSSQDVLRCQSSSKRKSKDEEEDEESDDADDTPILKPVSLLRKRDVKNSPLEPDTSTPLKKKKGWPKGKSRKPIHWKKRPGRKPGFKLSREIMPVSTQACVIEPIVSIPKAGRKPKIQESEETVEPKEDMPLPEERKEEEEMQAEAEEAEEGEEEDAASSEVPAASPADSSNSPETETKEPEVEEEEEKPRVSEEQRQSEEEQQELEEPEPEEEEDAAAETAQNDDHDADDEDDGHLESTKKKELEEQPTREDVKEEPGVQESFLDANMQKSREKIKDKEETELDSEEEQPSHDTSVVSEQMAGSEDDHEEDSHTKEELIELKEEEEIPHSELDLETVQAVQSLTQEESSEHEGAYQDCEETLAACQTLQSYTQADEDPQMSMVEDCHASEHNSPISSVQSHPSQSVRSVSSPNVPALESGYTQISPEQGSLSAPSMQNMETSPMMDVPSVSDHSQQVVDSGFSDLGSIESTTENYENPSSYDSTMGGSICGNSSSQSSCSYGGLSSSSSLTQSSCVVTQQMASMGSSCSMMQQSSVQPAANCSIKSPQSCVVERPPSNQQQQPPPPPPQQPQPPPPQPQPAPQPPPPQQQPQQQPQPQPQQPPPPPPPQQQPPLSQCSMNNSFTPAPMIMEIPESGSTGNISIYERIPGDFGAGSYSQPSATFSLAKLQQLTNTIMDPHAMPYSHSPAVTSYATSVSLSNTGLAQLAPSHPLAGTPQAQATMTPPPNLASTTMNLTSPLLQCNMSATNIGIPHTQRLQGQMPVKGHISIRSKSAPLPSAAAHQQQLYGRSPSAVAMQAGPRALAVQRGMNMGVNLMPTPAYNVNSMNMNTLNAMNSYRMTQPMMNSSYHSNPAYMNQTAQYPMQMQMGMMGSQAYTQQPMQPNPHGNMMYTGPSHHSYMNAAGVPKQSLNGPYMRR

| Structure (SMILES) | IC50 |
| --- | --- |
| O=C(NS(=O)(=O)c1ccccc1-c1ccccc1)c1cc2c(F)cc(C3CC3)cc2o1 [WO2022081842, Example 38] | 0.017 µM |
| CCOc1ccccc1S(=O)(=O)NC(=O)c1cc2c(C(F)(F)F)cc(C3CC3)cc2o1 [WO2022081842, Example 51] | 0.026 µM |
| CC(C)c1ccc2cc(C(=O)NS(=O)(=O)c3ccc(Cl)cc3Cl)oc2c1 [WO2022081842, Example 57] | 0.611 µM |

Results, then the compound that gave them:

| IC50 | Structure (SMILES) |
| --- | --- |
| 0.215 µM | C=C(C)c1ccc2cc(C(=O)NS(=O)(=O)c3ccccc3-c3ccccc3)oc2c1 [WO2022081842, Example 23] |
| 0.029 µM | CCOc1ccccc1S(=O)(=O)NC(=O)c1cc2c(OC(F)F)cc(C3CC3)cc2o1 [WO2022081842, Example 49] |
| 0.04 µM | CCOc1ccccc1S(=O)(=O)NC(=O)c1cc2c(-n3ccnc3)cc(C3CC3)cc2o1 [WO2022081842, Example 58] |

molecular target: Histone acetyltransferase KAT6B (Human, UniProt Q8WYB5); assay: Kat6b Activity Assay
Sequence (Q8WYB5 whole entry, the tested form may be a part): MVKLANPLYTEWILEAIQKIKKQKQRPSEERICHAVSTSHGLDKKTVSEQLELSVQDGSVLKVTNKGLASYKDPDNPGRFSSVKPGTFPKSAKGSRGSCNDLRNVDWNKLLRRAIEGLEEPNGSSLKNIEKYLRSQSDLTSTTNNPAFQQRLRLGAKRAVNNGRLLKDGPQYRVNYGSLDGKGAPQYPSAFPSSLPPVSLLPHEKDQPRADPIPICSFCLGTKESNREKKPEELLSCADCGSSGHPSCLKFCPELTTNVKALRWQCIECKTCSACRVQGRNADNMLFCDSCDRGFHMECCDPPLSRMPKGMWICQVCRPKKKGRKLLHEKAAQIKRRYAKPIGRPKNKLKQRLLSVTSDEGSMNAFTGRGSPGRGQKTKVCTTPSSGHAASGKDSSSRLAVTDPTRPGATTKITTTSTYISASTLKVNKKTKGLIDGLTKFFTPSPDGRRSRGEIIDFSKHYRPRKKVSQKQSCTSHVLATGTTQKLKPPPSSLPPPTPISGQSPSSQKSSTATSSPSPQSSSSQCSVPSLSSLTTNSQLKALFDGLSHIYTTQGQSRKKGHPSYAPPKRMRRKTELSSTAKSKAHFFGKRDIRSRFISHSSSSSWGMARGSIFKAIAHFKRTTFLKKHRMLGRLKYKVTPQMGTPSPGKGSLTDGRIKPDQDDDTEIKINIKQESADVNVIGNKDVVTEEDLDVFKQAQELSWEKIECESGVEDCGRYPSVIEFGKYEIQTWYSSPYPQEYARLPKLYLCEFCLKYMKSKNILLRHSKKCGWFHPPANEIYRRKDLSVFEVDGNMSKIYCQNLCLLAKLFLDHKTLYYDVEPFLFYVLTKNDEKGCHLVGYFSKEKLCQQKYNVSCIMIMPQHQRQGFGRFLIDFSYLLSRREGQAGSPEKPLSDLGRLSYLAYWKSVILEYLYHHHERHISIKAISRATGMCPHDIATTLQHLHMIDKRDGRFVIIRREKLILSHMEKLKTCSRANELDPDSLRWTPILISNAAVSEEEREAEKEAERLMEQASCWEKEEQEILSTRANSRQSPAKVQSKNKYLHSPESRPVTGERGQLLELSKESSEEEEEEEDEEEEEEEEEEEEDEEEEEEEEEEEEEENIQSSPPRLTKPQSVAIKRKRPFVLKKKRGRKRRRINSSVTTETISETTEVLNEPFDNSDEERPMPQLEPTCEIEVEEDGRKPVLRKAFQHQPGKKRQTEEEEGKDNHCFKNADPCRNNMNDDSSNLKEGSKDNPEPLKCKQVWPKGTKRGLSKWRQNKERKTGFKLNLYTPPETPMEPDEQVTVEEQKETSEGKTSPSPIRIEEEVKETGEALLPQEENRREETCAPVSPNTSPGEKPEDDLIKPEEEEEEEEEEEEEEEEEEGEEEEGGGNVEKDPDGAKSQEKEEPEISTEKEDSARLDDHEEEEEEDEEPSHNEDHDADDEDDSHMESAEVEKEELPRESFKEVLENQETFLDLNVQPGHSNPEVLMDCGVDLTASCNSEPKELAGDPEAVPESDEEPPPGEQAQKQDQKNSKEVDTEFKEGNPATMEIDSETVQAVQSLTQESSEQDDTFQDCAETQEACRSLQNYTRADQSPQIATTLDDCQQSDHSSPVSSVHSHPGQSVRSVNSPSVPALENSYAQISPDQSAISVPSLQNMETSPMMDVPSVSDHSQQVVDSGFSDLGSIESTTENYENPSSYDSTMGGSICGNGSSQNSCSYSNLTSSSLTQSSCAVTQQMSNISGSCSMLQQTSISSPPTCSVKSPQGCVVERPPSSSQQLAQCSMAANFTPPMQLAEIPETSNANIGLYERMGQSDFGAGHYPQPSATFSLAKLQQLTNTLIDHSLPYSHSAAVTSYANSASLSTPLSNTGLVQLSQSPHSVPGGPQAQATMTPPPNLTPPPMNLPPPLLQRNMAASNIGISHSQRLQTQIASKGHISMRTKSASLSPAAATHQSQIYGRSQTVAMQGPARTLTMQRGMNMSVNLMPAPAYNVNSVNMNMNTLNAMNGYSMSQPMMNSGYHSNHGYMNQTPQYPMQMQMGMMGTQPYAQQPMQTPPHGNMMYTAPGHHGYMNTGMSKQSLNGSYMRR
Excerpt: Kat6b inhibitory activities of the compounds described in the present invention were quantified using a Fluorescence Resonance Energy Transfer (TR-FRET) assay which measures acetylation of a synthetic, biotinylated Histone-H4-derived peptide by the enzyme.Recombinant human GST-tagged Kat6b protein (431-end, N-terminal GST-tag), purified from Baculovirus- infected insect cells (Sf9), was purchased from SignalChem (#K315-381BG). Histone H4 peptide (amino acids 1-24, […]-VLRD-K(Btn)-amide), which was used as substrate, was synthesized by Biosyntan GmbH, Berlin, Germany. Acetyl Coenzyme A was purchased from Sigma-Aldrich (#A-2056). Kat6b was incubated for 30 mins at 22°C in the presence of different concentrations of test substances (0 μM, and within the range 0.01 - 20 μM) in assay buffer [25 mM Tris/HCl pH 8, 1 mM EGTA, 2.5 mM Glutathion, 0.02% Chicken Albumin, 0.05% Pluronic F127, 25 mM NaCl, 500 nM H4 peptide and 600 nM Acetyl Coenzyme A].The reaction was stopped by addition of Detection Solution (25mM HEPES pH 7.5, 0.1% BSA, 22nM SAXL665 (Cisbio #610SAXLE), 100μM Anacardic Acid (Enzo #ALX-270-381), 1nM Anti-Histone H4 (ACETYL K8) Antibody (ABCAM #AB15823), 0.5 nM Anti-Rabbit IgG Eu (Perkin Elmer #AD0083).The fluorescence emission at 620 nm and 665 nm after excitation at 330-350 nm was measured in a TR-FRET measuring instrument, for instance a Rubystar or a Pherastar (both from BMG Lab Technologies, Offenburg, Germany) or a Viewlux (Perkin-Elmer). The ratio of the emission at 665 nm and at 622 nm was used as indicator of the amount of acetylated peptide.The resulting data (ratio) were normalized, taking 0% inhibition as the mean value of control measurements where all reagents were included. In this case 50 nl DMSO were used instead of compounds. A 100% inhibition corresponded to the mean value of control measurements where all reagents except enzyme were included. IC50 values were determined by regression analysis based on a 4 parameter equation (minimum, maximum, ICM, Hill; Y = Max + (Min - Max) / (1 + (X/ICso) Hill) using the Screener Software (Genedata).

| Structure (SMILES) | IC50 |
| --- | --- |
| O=C(NS(=O)(=O)c1ccccc1-c1ccccc1)c1cc2ccc(-c3cccnc3)cc2o1 [WO2022081842, Example 4] | > 20 µM |
| CN(C)C(=O)c1ccc2cc(C(=O)NS(=O)(=O)c3ccccc3-c3ccccc3)oc2c1 [WO2022081842, Example 8] | > 20 µM |
| Cc1ccc2cccc(S(=O)(=O)NC(=O)c3cc4c(F)cc(C5CC5)cc4o3)c2n1 [WO2022081842, Example 22] | 0.023 µM |
| CCOc1ccccc1S(=O)(=O)NC(=O)c1cc2c(F)cc(C3CC3)cc2o1 [WO2022081842, Example 25] | 0.028 µM |
| CC(C)c1ccc2cc(C(=O)NS(=O)(=O)c3ccc(Cl)cc3Cl)oc2c1 [WO2022081842, Example 57] | 5.25 µM |

More lines, now with the values ahead:

| IC50 | Structure (SMILES) |
| --- | --- |
| > 20 µM | O=C(O)c1ccc2cc(C(=O)NS(=O)(=O)c3ccccc3-c3ccccc3)oc2c1 [WO2022081842, Example 5] |
| 0.155 µM | C=C(C)c1ccc2cc(C(=O)NS(=O)(=O)c3ccccc3-c3ccccc3)oc2c1 [WO2022081842, Example 23] |
| 0.045 µM | CC(C)(C)c1ccc(OCc2ccccc2)c(S(=O)(=O)NC(=O)c2cc3c(F)cc(C4CC4)cc3o2)c1 [WO2022081842, Example 60] |
